According to PMC5419506, “Aromatic amino acids in the cellulose binding domain of Penicillium crustosum endoglucanase EGL1 differentially contribute to the cellulose affinity of the enzyme” (PLoS ONE, 2017):

Biological target: T1, eGFP-Linker-CBD (CBD domain of Penicillium crustosum endoglucanase EGL1) (Penicillium crustosum, UniProt U6A8H3)
T1 construct: N-terminal eGFP fusion in pET-28a, Ni-column, E. coli BL21(DE3)
T1 sequence (U6A8H3 301-459): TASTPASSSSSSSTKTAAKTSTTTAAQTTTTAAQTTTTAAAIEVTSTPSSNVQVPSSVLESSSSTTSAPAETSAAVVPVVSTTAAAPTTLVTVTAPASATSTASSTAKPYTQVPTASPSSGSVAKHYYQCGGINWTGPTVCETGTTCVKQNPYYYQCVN
Assay: isothermal titration calorimetry
Settings: 20 mM Tris-HCl pH 7.5, 50 mM NaCl; 25 °C; multi-site binding model; unit not given

## OC[C@H]1O[C@@H](O[C@H]2[C@H](O)[C@@H](O)[C@H](O[C@H]3[C@H](O)[C@@H](O)[C@H](O[C@H]4[C@H](O)[C@@H](O)[C@H](O[C@H]5[C@H](O)[C@@H](O)C(O)O[C@@H]5CO)O[C@@H]4CO)O[C@@H]3CO)O[C@@H]2CO)[C@H](O)[C@@H](O)[C@@H]1O (stereo partly shown) [cellopentose]
  Ka: 2.3E4
